Where two headings read alike, the source gives them in different places.
Tests used:
[1] = system: 3D7-strain P. falciparum asexual parasites; assay: P. falciparum asexual growth inhibition assay (Pf GIA); assay type: cell-based, Plasmodium falciparum; settings: dose response confirmation; read-out: Pf asexual growth inhibition assays IC50
Procedure, shortened: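 0.25% parasitemia, 2% Hct, RPMI/HEPES/hypoxanthine/5% Albumax; compound dose response, 72 h, 37°C, 5% CO2, 5% O2, 90% N2. Freeze-thaw, then LDH assay, A650. % inhibition vs chloroquine (50 μM)/DMSO, mean of 3 independent runs.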

HepG2 cells = assay: HepG2 cytotoxicity assay; settings: for IC50: read-out: HepG2 cytotoxicity assay IC50, dose response confirmation; for Pb ODA (this manuscript) HepG2 cytoxicity: HepG2 cytotoxicity listed with the Pb ODA data set (this manuscript)
Procedure, shortened: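 HepG2 cells, 2,500 per well in MEM with 10% FBS and 1% NEAA, exposed to compounds for 48 h at 37°C, 5% CO2. Viability read by fluorescence; percent inhibition relative to 50 μM doxorubicin and DMSO controls.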

[2] = system: P. berghei ookinete development; settings: for % inhibition, Replicate A / % inhibition, Replicate B: primary screen at 1 μM
[3] = unified HepG2 value across the three screens
[4] = read-out: Pb ODA IC50, this manuscript
[5] = read-out: Pb Ookinete development assay IC50, dose response confirmation
[6] = read-out: Pb ODA (this manuscript) IC50, P. berghei ookinete development assay, this manuscript
[7] = HepG2 values of the three screens unified

Row | Structure (SMILES) | IC50 [1] | IC50 (HepG2 cells) | Unified cytotox (HepG2 cells; [3]) | Is compound selective in assay? Pb ODA active? ([2]; 1: YES, 0: NO) | % inhibition, Replicate A [2] | % inhibition, Replicate B [2] | IC50 [2, 4] | IC50 [2, 5] | Pb ODA (this manuscript) HepG2 cytoxicity (HepG2 cells) | IC50 [2, 6] | Is compound selective in assay? Pb ODA active? [2] | HepG2 cytoxicity (Pb ODA, this manuscript) (HepG2 cells; HepG2, this manuscript) | Unified cytotox (HepG2 cells; [7])
1 | OCCc1ccc(Nc2nccc(-c3nnc4ccccn34)n2)cc1 [TCMDC-138924] | < 0.0002 µM | 100 µM | 100.00 µM | 1 (1: YES) | 70.77% | 81.57% | 0.4 µM | 0.395 µM | – | – | – | – | –
2 | Cc1nc(NC2=NCN(CCCN3CCOCC3)CN2)nc2c(C)cccc12 [TCMDC-125086] | 1.82 µM | 100 µM | – | – | 51.18% | 62.28% | – | 11.1 µM | 100.00 µM | 11.1 µM | – | – | –
3 | Cc1noc(C)c1-c1cccc(CNCc2ccc(-c3cccc(-c4nc5cc(F)ccc5[nH]4)c3)cc2)c1.O=C(O)C(F)(F)F [TCMDC-133060] | 1.3 µM | 15.5 µM | 15.49 µM | 0 (0: NO) | 12.93% | 53.61% | 13.7 µM | 13.7 µM | – | – | – | – | –
4 | COc1ccc(Nc2ncc(C#N)c(Nc3ccccc3C(N)=O)n2)cc1N1CCN(C)CC1.Cl [TCMDC-134117] | 0.063 µM | 8.32 µM | – | – | 92.85% | 98.42% | – | 0.026 µM | 8.32 µM | 0.0255 µM | 1 (key: 1: YES; 0: NO) | – | –
5 | COc1ccc(Cl)cc1NC(=O)CN(C)C(=O)c1cnn(-c2ccccc2)n1 [TCMDC-125457] | 0.222 µM | 100 µM | 100.00 µM | 1 (1: YES) | 53.54% | 37.16% | 5.11 µM | 5.11 µM | – | – | – | – | –
6 | COc1ccc2c(=O)c(Br)c(C)[nH]c2c1 [TCMDC-137426] | 0.842 µM | 100 µM | – | – | 81.77% | 82.46% | – | 0.483 µM | 100.00 µM | 0.48 µM | 1 (key: 1: YES; 0: NO) | – | –
7 | COc1cccc(C=Cc2nc(=O)c3ccccc3o2)c1OC [TCMDC-124577] | 0.146 µM | 100 µM | – | – | 107.06% | 83.20% | – | 0.049 µM | 100.00 µM | 0.05 µM | 1 (key: 1: YES; 0: NO) | – | –
8 | O=C(NCC1CC1)C1CCN(C(c2ccc(Cl)cc2)c2ccc(Cl)cc2)CC1 [TCMDC-135522] | 0.305 µM | 100 µM | 100.00 µM | 1 (1: YES) | 38.16% | 71.31% | – | 1.59 µM | – | – | – | – | –
9 | CC(=O)Nc1cccc(Nc2c3ccccc3nc3ccccc23)c1 [TCMDC-123741] | 1.47 µM | 12.3 µM | 12.30 µM | 1 (1: YES) | 54.87% | 64.71% | 0.69 µM | 0.686 µM | – | – | – | – | –
10 | O=C(Nc1ccc(OC2CCN(Cc3ccc(F)cc3)CC2)c(Cl)c1)c1cccs1.O=C(O)C(F)(F)F [TCMDC-133746] | 0.242 µM | 38.9 µM | – | – | 51.32% | 44.22% | – | 1.17 µM | 38.90 µM | 1.16 µM | 1 (key: 1: YES; 0: NO) | – | –
11 | CCOc1ccc2[nH]c(C)cc(=NN=Cc3cccnc3)c2c1 [TCMDC-142047] | 0.139 µM | 15.1 µM | 15.14 µM | 0 (0: NO) | 59.45% | 48.70% | 4.52 µM | 4.52 µM | – | – | – | – | –
12 | Cc1[nH]c(C)c(-c2ccc(OCc3cc(F)cc(F)c3)nc2)c(=O)c1Br [TCMDC-135683] | 0.188 µM | 25.4 µM | – | 1 (1: YES) | 82.45% | 85.99% | 0.41 µM | 0.409 µM | – | – | – | 25.41 µM | 25.41 µM
13 | COc1cc(Nc2ncc3c(C)nc(-c4cccc(Nc5ccc(CN6CCS(=O)(=O)CC6)cc5)c4)n3n2)cc(OC)c1OC [TCMDC-136003] | 1.4 µM | 30.9 µM | 30.90 µM | 1 (1: YES) | 93.24% | 100.90% | 0.18 µM | 0.175 µM | – | – | – | – | –
14 | COc1ccc(CCc2ccc(-c3c(C)[nH]c(C)c(Cl)c3=O)cc2)cc1 [TCMDC-135654] | 0.02 µM | 100 µM | – | 1 (1: YES) | 86.19% | 104.99% | 0.14 µM | 0.143 µM | – | – | – | – | 100.00 µM
15 | Cc1[nH]cc(Br)c(=O)c1-c1ccc(Oc2ccccc2)cc1 [TCMDC-136196] | 0.422 µM | 100 µM | – | 1 (1: YES) | 91.11% | 82.53% | 0.37 µM | 0.369 µM | – | – | – | – | 100.00 µM
16 | Cc1ccc(Nc2nc(N/N=C/c3cccc(O)c3)nc(Nc3ccc([N+](=O)[O-])cc3)n2)cc1C [TCMDC-124125] | 1.81 µM | 100 µM | 100.00 µM | 1 (1: YES) | 68.98% | 54.76% | 3.83 µM | 3.83 µM | – | – | – | – | –
17 | CC(=O)Oc1c(Cl)c(C)nc(C)c1-c1ccc(Oc2ccc(OC(F)(F)F)cc2)cc1 [TCMDC-137385] | 0.075 µM | 32 µM | – | – | 89.00% | 125.42% | – | 1.02 µM | 31.99 µM | 1.02 µM | 1 (key: 1: YES; 0: NO) | – | –
18 | COc1ccc(Cc2c(N)nc3nc(N)nc(N)c3c2C)cc1.Cl [TCMDC-138061] | 0.142 µM | 0.055 µM | – | – | -0.33% | 51.34% | – | 5.18 µM | 0.055 µM | 5.18 µM | 0 (key: 1: YES; 0: NO) | – | –
19 | COc1cc(-c2nc(C(C)(C)CN)[nH]c2-c2ccncc2)ccc1Br.Cl [TCMDC-140674] | 3.12 µM | 39.8 µM | – | – | 75.42% | 38.48% | – | 1.32 µM | 39.81 µM | 1.32 µM | 1 (key: 1: YES; 0: NO) | – | –
20 | COc1ccc2ncc(F)c(CCN3CCC(NCc4cc(Br)c5c(c4)OCCO5)CC3)c2n1.Cl [TCMDC-136211] | 0.239 µM | 14.5 µM | – | – | 36.10% | 50.60% | – | 3.4 µM | 14.45 µM | 3.39 µM | 0 (key: 1: YES; 0: NO) | – | –
21 | CN(C)S(=O)(=O)n1ccc2c3c(N)nc(N)nc3ccc21 [TCMDC-137973] | 0.006 µM | 0.0017 µM | – | – | 72.90% | 52.14% | – | 1.27 µM | 0.0017 µM | 1.27 µM | 0 (key: 1: YES; 0: NO) | – | –
22 | Nc1nc(N)c2c(Cl)c(N3CCOCC3)ccc2n1 [TCMDC-137868] | 0.072 µM | 0.00861 µM | 0.00861 µM | 0 (0: NO) | 53.12% | 26.39% | 3.8 µM | 3.8 µM | – | – | – | – | –
23 | COc1ccc2ncc(Cl)c(CCN3CCC(NCc4ccc5c(n4)NC(=O)CO5)CC3)c2c1.Cl [TCMDC-141808] | 0.014 µM | 1.29 µM | – | – | 43.21% | 70.93% | – | 1.22 µM | 1.29 µM | – | 0 (key: 1: YES; 0: NO) | – | –
24 | CN1CCN(c2ccc(Nc3nccc(-c4cnn5ncccc45)n3)cc2Cl)CC1 [TCMDC-138688] | 0.929 µM | 46.8 µM | 46.77 µM | 1 (1: YES) | 69.14% | 64.46% | 1.8 µM | 1.8 µM | – | – | – | – | –
25 | CCc1cc2c(Sc3nc4ccccc4[nH]3)ncnc2s1 [TCMDC-124553] | 1.76 µM | 100 µM | 100.00 µM | 1 (1: YES) | 56.26% | 84.90% | 1 µM | 0.998 µM | – | – | – | – | –
